According to patent publication US7893199B2, “Peptides having neutrophil-stimulating activity” (National University Corporation Gunma University, priority 2006, dated 2011):
Where no end group is shown, it is not given here.

Tests used:
[1] = system: G protein in the differentiated HL-60 cell membrane fraction; experiment: G protein activation ability (GTP hydrolysis) in cell membrane fraction; format: biochemical, human
Protocol: (4) Measurement of G Protein Activation Ability
The cells were collected by centrifuging the suspension of the differentiated HL-60 cells (1,000 rpm, 5 minutes, 4° C.). After that, the following operation was repeated three times to wash the cells: ice-cooled PBS was added to the cells; the mixture was suspended by inversion; and the mixture was centrifuged (1,000 rpm, 5 minutes, 4° C.). Then, the precipitated cells were suspended in a buffer for preparing a cell membrane fraction (20 mM Tris-HCl, 250 mM sucrose, 1.5 mM MgCl2, 3 mM benzamidine hydrochloride monohydrate, 1 μM leupeptin, 1 μM PMSF, 2 μg/ml trypsin inhibitor, pH 7.5) and a cell homogenate was prepared using nitrogen pressing-depressing type cell homogenizing apparatus (nitrogen pressure: 350 psi). After that, the resultant was ultracentrifuged (20,000 g, 4° C., 30 minutes) to remove the supernatant, and the precipitate was suspended in a membrane fraction buffer (20 mM Tris-HCl, 1 mM EDTA, 1 mM DTT, 77.5 mTIU/ml aprotinin, pH 7.5) and used as a cell membrane fraction. After dispensed, the cell membrane fraction was stored at −80° C. The activity of the G protein was quantified using the activity to hydrolyze GTP to GDP as an index. […] The mixture was centrifuged (15,000 rpm, 1 minute, 4° C.), and the radioactivity of the supernatant was measured.

bovine Gi1-G protein = target: T1, bovine Gi1-G protein (Bos taurus, UniProt P63097); experiment: G protein activation ability (GTP hydrolysis) with purified Gi1; format: biochemical
T1 construct: made in house; host or cells: E. coli
T1 sequence (P63097 whole entry): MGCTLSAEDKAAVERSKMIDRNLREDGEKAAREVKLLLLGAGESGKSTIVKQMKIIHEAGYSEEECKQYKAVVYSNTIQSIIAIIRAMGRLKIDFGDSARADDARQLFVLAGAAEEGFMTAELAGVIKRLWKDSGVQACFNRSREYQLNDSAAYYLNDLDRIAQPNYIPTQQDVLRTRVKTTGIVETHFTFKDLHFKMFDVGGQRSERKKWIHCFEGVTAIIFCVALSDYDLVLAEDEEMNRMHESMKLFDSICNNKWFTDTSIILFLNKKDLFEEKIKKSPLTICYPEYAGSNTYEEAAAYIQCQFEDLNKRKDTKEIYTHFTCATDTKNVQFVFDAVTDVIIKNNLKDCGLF

[2] = system: HL-60 cells differentiated into the neutrophil-like cells; experiment: β-hexosaminidase-secreting activity of neutrophil-like differentiated HL-60 cells; format: cell-based, human; settings: differentiated HL-60 cells; read-out: EC50, β-hexosaminidase-secreting activity
Summary of the method: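 HL-60 cells were differentiated with 500 μM db-cAMP for 3 days at 37 °C, then stimulated with peptide for 10 min in HBHS/0.1% BSA, pH 7.4, containing 5 μg/ml cytochalasin B and DNase I. Released β-hexosaminidase was read at 405 nm after p-nitrophenyl-N-acetylglucosaminide hydrolysis (pH 4.5, 37 °C, 1 h). Secretion is expressed relative to 10 μM fMLP, with total enzyme from 0.05% Triton X-100 lysis.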

[3] = system: differentiated HL-60 cells; experiment: migration activity (Chemotaxis Index) of differentiated HL-60 cells; format: cell-based, human
Protocol: (3) Measurement of Migration Activity
The cells were collected by centrifuging the suspension of the differentiated HL-60 cells (1,000 rpm, 5 minutes, 4° C.). After that, the following operation was repeated three times to wash the cells: 10% FBS-RPMI1640 was added to the cells; the mixture was suspended by inversion; and the mixture was centrifuged again (1,000 rpm, 5 minutes, 4° C.). Then, a medium (10% FBS-RPMI1640) was added so that a cell density was 4×10^6 cells/ml, thereby a cell suspension was prepared. Subsequently, 1 ml of each peptide solution (dissolved in 10% FBS-RPMI 1640) was transferred to each well of a 24-well plate, and the plate was incubated at 37° C. for 20 minutes. After that, 500 μl of the cell suspension (2×10^6 cells) were put in Chemotaxicell (KURABO […] LTD., 3 μm) and the Chemotaxicell was set in a plate, followed by incubation in the presence of 5% CO2 at 37° C. for 1 hour. Then, the Chemotaxicell was removed and the solution in each well of the plate was pipetted. The cells migrated to the plate side was suspended well and the number of the cells were measured. Note that the migration activity by the peptide was represented by a ratio of the number of the cells to the number of the cells passing the Chemotaxicell at the time of non-stimulation (Chemotaxis Index, CI).

In the case of MLWNLLALHQIGQRTISTASHRH [No. 019], the “activation of G protein” value [1] is reported as “activated”, the “activation of purified Gi1 protein” value (bovine Gi1-G protein) is reported as “activated” and the EC50 [2] is reported as 200 nM. The “concentration of migration activity compared with that of β-hexosaminidase-secreting activity” value [3] was “confirmed at the concentration lower than the concentration at which β-hexosaminidase-secreting activity was confirmed” and the “desensitization of migration activity with increasing concentration of the peptide” value [3] was “subjected to desensitization completely”.
